Drawing on PubChem BioAssay AID1013 (Columbia University Molecular Screening Center, 2008), this text covers cell count and IC50 for 33 compounds.

Test [1] is described as follows: inhibitors of TNFa-induced VCAM1 expression, confirmation, imaging, TNFa stimulus, retest and dose response (AID 1013).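 On cell count: compound on cells 1 h before TNFa then 24 h more.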 Particulars: TNFa-stimulated cells, VCAM1 expression imaging; cell count; at 10 µM; stronger effect = lower value.
The test system of test [2] is TNFa-stimulated cells, VCAM1 expression imaging. The description is as above.

As a reminder, the IC50 is the concentration that gives 50% inhibition.

The structures appear in SMILES notation. Activity calls are given as the source filed them. How the calls were made is not given here.

Regarding `Nc1nnnn1/N=C/C(Br)=C/c1ccccc1`, in test [1], the cell count amounted to 106%. For the same compound, the IC50 in test [2] is > 10 µM (inactive).
On the same counts, the results for `COc1ccc(OC)c(C2C3=C(COC3=O)Nc3cc4c(cc32)OCO4)c1` (stereo unspecified) are 112% and > 10 µM (inactive).
The corresponding values for `COc1ccc(S(=O)(=O)Nc2cc3c(C(C)=O)c(C)oc3c3ccccc23)cc1` are 113% and > 10 µM (inactive).
On the same counts, the results for `C#CC(=O)N(c1cccc(OC)c1)C(C(=O)NC1CCCC1)c1cccs1` (stereo unspecified) are 0.98% and 1.77 µM.
`CCOC(=O)c1[nH]c(C)c(C(=O)N2CCc3ccccc32)c1C` gave a cell count in test [1] of 61.8%. Besides, the IC50 in test [2] was 0.778 µM.
The corresponding values for `Cc1ccc(NC2=C/C(=N\S(=O)(=O)c3cccs3)c3ccccc3C2=O)c(C)c1` are 104% and > 10 µM (inactive).
As to `CCCCCc1ccc(-c2ccc(=O)[nH]n2)cc1`, the cell count in test [1] was 91%. Further, in test [2], the IC50 was 2.49 µM.
On to `CC1=C([N+](=O)[O-])C(c2cccc(Br)c2)C2=C(N1)c1ccccc1C2=O` (stereo unspecified), for which the cell count in test [1] turned out to be 68.1%. Also, in test [2], the IC50 was > 10 µM (inactive).
In test [1], `Cc1ccc(Nc2nc(-c3c(C)nc4ccccn34)cs2)cc1` yielded a cell count of 27.9%. Also, the IC50 in test [2] is 3.8 µM.
`O=c1c2ccccc2nc(/C=C/c2ccc([N+](=O)[O-])o2)n1CCCO` yielded a cell count in test [1] of 83.1%. For the same compound, the IC50 in test [2] is 1.54 µM.
The corresponding values for `COc1ccc(NC(=O)/C(Cl)=C(/Cl)S(=O)Cc2ccccc2)cn1` (stereo unspecified) are 34.2% and 1.06 µM.
For `O=S(=O)(c1ccc(Cl)cc1)c1snnc1-c1ccccc1`, the cell count in test [1] is 71.6%. In test [2], the IC50 was 4.86 µM.
As for `CCN(CC)c1ccc(-c2nn3c(-c4n[nH]c5c4CCC5)nnc3s2)cc1`, the cell count in test [1] turned out to be 57.7%. For the same compound, the IC50 in test [2] is > 10 µM (inactive).
`CCOc1cc(/C=N\NC(=O)Cc2ccccc2)ccc1OCC(=O)Nc1ccc(C)c(C)c1`: the cell count in test [1] was found to be 110%. The IC50 in test [2] is > 10 µM (inactive).
In test [1], `O=C1CCCc2c1[nH]c1ccc(Cl)cc21` gave a cell count of 61.6%. Also, the IC50 in test [2] was 0.888 µM.
On the same counts, the results for `COc1ccc(C(=O)c2c(C(F)(F)F)oc3c2C(=O)c2ccccc2C3=O)cc1` are 105% and > 10 µM (inactive).
For the compound `COc1ccccc1-n1cnc2cc(NCc3ccco3)ccc21`, the cell count in test [1] is 41.8%. The IC50 in test [2] was > 10 µM (inactive).
`O=C(Nc1ccccc1)c1nnsc1S(=O)c1ccc(Cl)cc1` (stereo unspecified) came in with a cell count in test [1] of 95.6%. The IC50 in test [2] was > 10 µM (inactive).
On the same counts, the results for `CC(C)Oc1ccccc1C1CC(=O)Nc2cc3c(cc21)OCO3` (stereo unspecified) are 80.6% and > 10 µM (inactive).
On the same counts, the results for `COc1ccc(C(=O)C(CN2CCOCC2)c2ccccc2)cc1` (stereo unspecified) are 73.8% and 2.68 µM.
The corresponding values for `C=CCSc1nc2ccccc2n1C(=O)/C=C/c1cc(OC)c(OC)c(OC)c1` are 106% and > 10 µM (inactive).
As for `Cc1cc(NC(=O)CSc2nc(-c3cccs3)cc(C(F)(F)F)n2)no1`, the cell count in test [1] is 111%. The IC50 in test [2] is > 10 µM (inactive).
The corresponding values for `CCCC1=Nc2cc(C(=O)NCCCOCC)ccc2Sc2ccccc21` are 31.7% and 1.01 µM.
On the same counts, the results for `COc1ccc(NS(=O)(=O)c2cc(C)ccc2NC(=O)c2cc(C)oc2C)cc1` are 71% and 3.16 µM.
On the same counts, the results for `CC(/C=N/NC(=O)c1cc(-c2ccc(Cl)cc2)nc2ccccc12)=C\c1ccco1` are 116% and > 10 µM (inactive).
With `Cc1ccc(-n2ncc3c(N4CCN(c5ccccc5)CC4)ncnc32)c(C)c1`, the cell count in test [1] came to 111%. Also, in test [2], the IC50 was > 10 µM (inactive).
In the case of `Cn1cc(/C=N/n2cnc3scc(-c4ccc(Cl)cc4)c3c2=O)c2ccccc21`, the cell count in test [1] is 88.1%. In addition, the IC50 in test [2] is > 10 µM (inactive).
Consider `CC1=CC(C)(C)N(S(=O)(=O)c2ccc(C)cc2)c2cc(C)ccc21`, for which, in test [1], the cell count was 113%. The IC50 in test [2] is > 10 µM (inactive).
`COc1cc(C(=O)N2CCN(c3cc(Cl)ccc3Cl)CC2)cc(OC)c1OC` gave a cell count in test [1] of 82.9%. In addition, the IC50 in test [2] was > 10 µM (inactive).
The corresponding values for `COc1ccc(CCNc2nnc(Sc3nnnn3-c3ccccc3)s2)cc1OC` are 27.4% and 1.61 µM.
The corresponding values for `Cc1ccc(CSc2nc3ccccc3cc2C=O)cc1` are 110% and > 10 µM (inactive).
For `Cc1ccc(Cl)cc1NC1=C/C(=N\S(=O)(=O)c2cccs2)c2ccccc2C1=O`, the cell count in test [1] came to 123%. Besides, in test [2], the IC50 is > 10 µM (inactive).
The corresponding values for `COc1cc(/C=C(/C#N)C(=O)NCCc2c[nH]c3ccccc23)ccc1OCc1ccccc1F` are 98.2% and > 10 µM (inactive).
